Measured values as given in article PMC10269165 (Antimicrobial Agents and Chemotherapy, 2023).

Assays:
[1] = tested on: MDR isolate of H. contortus, exsheathed L3 larvae; test: Larval motility assay (LMA), Worminator; assay type: cell-based, Haemonchus contortus
From the text: The H. contortus isolates used were TxPh-2011-S (Texas A&M University, USA) and UGA MDR 2020 (University of Georgia Athens, USA). TxPh-2011-S (Texas A&M University, USA) was originally isolated from Pronghorn antelope in West Texas in 2011 and is fully drug susceptible, phenotypically determined by the DrenchRite larval development assay (LDA; Microbial Screening Technologies, Kemps Creek, Australia). To establish this as a laboratory isolate, it was initially passaged in goats at Texas A&M University and then at The University of Georgia using both goats and sheep, and it is currently maintained in lambs at Louisiana State University. A nemabiome assay ([69]) was conducted at the University of Calgary to confirm that the isolate is 100% H. contortus. The UGA MDR 2020 (University of Georgia Athens, USA) isolate is resistant to ivermectin, benzimidazoles, levamisole, and moxidectin, as determined by the DrenchRite LDA. To establish this as a laboratory isolate, feces collected from a sheep farm in Georgia with known history of multiple anthelmintic resistance were cultured. Two donor goats were infected with the larvae recovered, which were morphologically ([70]) identified as 89% H. contortus. A fecal egg count reduction test (FECRT) was then performed in the infected goats. First, a combination treatment with albendazole at 15 mg/kg and ivermectin at 0.4 mg/kg was performed, followed by a treatment with levamisole at 12 mg/kg. Later, and to confirm resistance to moxidectin, another treatment was administered using a dose of 0.4 mg/kg of moxidectin. Posttreatment feces were recovered, coprocultures were established, and L3 larvae were identified as 100% H. contortus. Resistance to all drugs was subsequently confirmed using a DrenchRite assay.
For LMAs, the first phase testing using compounds NSC133100 and NSC177383 was done using the Worminator system in parallel with the LDA. Initial stock solutions of 12.5 mM were prepared for each compound using 100% DMSO as a solvent. Initial stock solutions (25 μL) were then diluted in 475 μL of culture media to yield working stock solutions of 625.00, 156.30, 39.10, 9.80, 2.40, 0.60, 0.20, 0.04, and 0.00 μM in 5% DMSO for each drug. In plate, 200 μL of working stock solutions were then diluted in 800 μL of culture media, yielding concentrations of 125.00, 31.25, 7.81, 1.95, 0.49, 0.12, and 0.00 μM in 1% DMSO. For the second phase of testing, compounds showing anthelmintic activity with the LDA were tested in a second round at higher concentrations than in the first phase of testing. Initial stocks of 50 mM were prepared for compounds NSC133100, NSC177383, NSC145612, and NSC56410 using 100% DMSO as a solvent. Initial stock solutions (25-μL portions) were then diluted in 475 μL of culture media consisting of 65% Lauria-Bertani (LB) (Thermo Fisher Scientific, Branchburg, NJ), 25% NCTC (Sigma-Aldrich), 10% fetal bovine serum (Atlanta Biologicals, Flowery Branch, GA), Pen/Strep (Sigma-Aldrich) at a final concentration of […], and amphotericin B (Sigma-Aldrich) at a final concentration of […]. The working stock solutions yielded concentrations of 2,500.00, 625.00, 156.30, 39.10, 9.80, 2.40, and 0.00 μM in 5% DMSO for each compound. In each well in the plate, 200 μL of working stock solutions were then diluted in 800 μL of culture media, yielding final concentrations of 500.00, 125.00, 31.30, 7.81, 1.95, 0.49, and 0.00 μM in 1% DMSO.
For the motility assays, 24-well plates with inserts were used (Costar, catalog no. 3379; Corning, Inc., Corning, NY). Portions (640 μL) of culture media were added to each well, and approximately 50 exsheathed larvae contained in 160 μL of culture media in each insert. Once pretreatment readings were taken, 160 μL of the drug solution was added to the well, and another 40 μL was added to the insert, reaching the final concentrations described in the protocol above. All concentrations were tested in triplicate. […]

[2] = tested on: MDR isolate of H. contortus, exsheathed L3 larvae; test: Larval motility assay (LMA), Worminator; assay type: cell-based, Haemonchus contortus; remark: listed apart in the source

SMILES: CO[C@@H]1/C=C/O[C@@]2(C)Oc3c(C)c(O)c4c(c3C2=O)C(=N[C@@H]2CC[C@@H](O)O[C@H]2C)C=C(NC(=O)/C(C)=C\C(=O)[C@@H]2C[C@@H]2[C@H](O)[C@@H](C)[C@@H](O)[C@@H](C)[C@H](OC(C)=O)[C@@H]1C)C4=O [NSC177383]
- Percent inhibition of larval motility ([1]; 15.625 µM, 1 hour): -22.8%
- Percent inhibition of larval motility ([1]; 15.625 µM, 4 hours): -24.6%
- Percent inhibition of larval motility ([1]; 15.625 µM, 24 hours): 15.6%
- Percent inhibition of larval motility ([1]; 15.625 µM, 48 hours): 3.0%
- Percent inhibition of larval motility ([1]; 15.625 µM, 72 hours): -5.8%
- Percent inhibition of larval motility ([1]; 15.625 µM, 96 hours): -22.4%
- Percent inhibition of larval motility ([1]; 15.625 µM, Initial): 19.9%
- Percent inhibition of larval motility ([1]; 31.25 µM, 1 hour): 2.3%
- Percent inhibition of larval motility ([1]; 31.25 µM, 4 hours): 5.2%
- Percent inhibition of larval motility ([1]; 31.25 µM, 24 hours): 13.8%
- Percent inhibition of larval motility ([1]; 31.25 µM, 48 hours): 41.2%
- Percent inhibition of larval motility ([1]; 31.25 µM, 72 hours): 25.5%
- Percent inhibition of larval motility ([1]; 31.25 µM, 96 hours): 17.1%
- Percent inhibition of larval motility ([1]; 31.25 µM, Initial): 23.2%
- Percent inhibition of larval motility ([1]; 62.5 µM, 4 hours): -28.6%
- Percent inhibition of larval motility ([1]; 62.5 µM, 24 hours): 23.5%
- Percent inhibition of larval motility ([1]; 62.5 µM, 48 hours): 26.0%
- Percent inhibition of larval motility ([1]; 125 µM, 1 hour): 26.8%
- Percent inhibition of larval motility ([1]; 125 µM, 4 hours): -34.1%
- Percent inhibition of larval motility ([1]; 125 µM, 24 hours): 20.5%
- Percent inhibition of larval motility ([1]; 125 µM, 48 hours): 31.1%
- Percent inhibition of larval motility ([1]; 125 µM, 72 hours): 4.1%
- Percent inhibition of larval motility ([1]; 125 µM, 96 hours): 5.7%
- Percent inhibition of larval motility ([1]; 125 µM, Initial): 22.5%
- Percent inhibition of larval motility ([1]; 250 µM, 1 hour): 28.8%
- Percent inhibition of larval motility ([1]; 250 µM, 24 hours): 30.2%
- Percent inhibition of larval motility ([1]; 250 µM, 48 hours): 44.8%
- Percent inhibition of larval motility ([1]; 250 µM, 96 hours): 31.2%
- Percent inhibition of larval motility ([1]; 250 µM, Initial): 43.9%
- Percent inhibition of larval motility ([1]; 500 µM, 1 hour): 27.1%
- Percent inhibition of larval motility ([1]; 500 µM, 4 hours): -12.9%
- Percent inhibition of larval motility ([1]; 500 µM, 24 hours): 26.6%
- Percent inhibition of larval motility ([1]; 500 µM, 48 hours): 49.1%
- Percent inhibition of larval motility ([1]; 500 µM, 72 hours): 32.3%
- Percent inhibition of larval motility ([1]; 500 µM, 96 hours): 21.4%
- Percent inhibition of larval motility ([1]; 500 µM, Initial): 36.4%
- Percent inhibition of larval motility ([2]; 62.5 µM, 1 hour): 3.9%
- Percent inhibition of larval motility ([2]; 62.5 µM, 72 hours): 19.1%
- Percent inhibition of larval motility ([2]; 62.5 µM, 96 hours): 14.7%
- Percent inhibition of larval motility ([2]; 62.5 µM, Initial): 16.5%
- Percent inhibition of larval motility ([2]; 250 µM, 4 hours): -42.2%
- Percent inhibition of larval motility ([2]; 250 µM, 72 hours): 46.1%
